Earlier results in patent US20050192267A1, “Use of targeted oxidative therapeutic formulation in treatment of viral diseases” (priority 2004, published 2005).

What was measured:
[1] = tested on: Hepatitis C; settings: chronic Hepatitis C; used alone
[2] = tested on: peroxide-sensitive E. coli; settings: infused into the blood of infected rabbits
[3] = tested on: E. coli; settings: increasing concentration of peroxide ex-vivo in rabbit or human blood

Compound: NC(=O)c1ncn([C@@H]2O[C@H](CO)[C@@H](O)[C@H]2O)n1 [Ribavirin, ribavirin]
- effectiveness of treatment [1]: does not appear to be effective

Compound: OO [hydrogen peroxide, Hydrogen peroxide]
- bactericidal effect [2]: no bactericidal effect
- direct bactericidal activity [3]: no evidence of direct bactericidal activity
